Measured values as given in BindingDB's records for doi:10.1021/acs.jmedchem.7b01854 (Gsk Pharmaceuticals R & D, 2018).

Legend:
[1] = molecular target: C-C chemokine receptor type 10 (Homo sapiens) (UniProt P46092); experiment: Agonist activity at CCR10 (unknown origin)
[2] = molecular target: C-C chemokine receptor type 10 (Homo sapiens) (UniProt P46092); experiment: Agonist activity at CCR10 (unknown origin); remark: listed apart in the source

Chain of C-C chemokine receptor type 10 (Homo sapiens) (P46092 whole entry, looked up): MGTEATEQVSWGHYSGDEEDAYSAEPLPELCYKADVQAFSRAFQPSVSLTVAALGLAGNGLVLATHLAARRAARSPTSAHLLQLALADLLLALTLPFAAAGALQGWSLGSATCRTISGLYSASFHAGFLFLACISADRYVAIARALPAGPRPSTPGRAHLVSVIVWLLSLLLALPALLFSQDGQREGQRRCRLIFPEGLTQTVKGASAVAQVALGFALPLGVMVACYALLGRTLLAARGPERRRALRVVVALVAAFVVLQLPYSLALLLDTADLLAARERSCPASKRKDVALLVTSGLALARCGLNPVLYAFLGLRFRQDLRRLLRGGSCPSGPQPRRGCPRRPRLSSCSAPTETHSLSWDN

- EC50 [1]: > 10 µM
- IC50 [2]: > 10 µM
Compound: CC1=CCC[C@H]1NC(=O)Nc1ccc(Cl)c(S(=O)(=O)[C@@]2(C)CCOC2)c1O
